Target: 6×His-CRBN-DDB1 protein (Homo sapiens (Human), UniProt Q96SW2)
Experiment: CRBN Fluorescence Polarization Assay
Format: binding
Details: competitive fluorescence polarization; Cy5-O-Len probe 30 nM, 6×His-CRBN-DDB1 200 nM; 1 hour at room temperature; mean of three independent determinations; read-out: CRBN FP (IC50)
Description: In this competitive fluorescent polarization assay Cy5 conjugated lenalidomide analog (Cy5-O-Len)^13 was used as a fluorescent probe. 6×His-CRBN-DDB1 protein (200 nM) and Cy5-O-Len probe (30 nM) were combined in 20 mM HEPES pH 7, 150 mM NaCl, 0.005% Tween-20 assay buffer. 20 μL of this assay cocktail was dispensed into wells of Corning 3821 black 384-well plates. Compounds were transferred to the assay plate from a dose-response plate using a Pintool on a Biomek FXP Laboratory Automation Workstation (Beckman Coulter). The plates were incubated in the dark for 1 hour at room temperature and then read on an Envision plate reader (PerkinElmer, Massachusetts, USA). IC50 values were determined using a proprietary software RISE (Robust Investigation of Screening Experiments), developed in house on the Pipeline Pilot platform (Biovia, v. 17.2.0). Data represent the mean of three independent determinations.
Cereblon binding activity was determined as described herein above, and the results are provided below in Table 2 for representative disclosed compounds. Compound number (“Cmpd No.”) refers to the compound number (and associated compound information such as structure, name, etc.) as provided in Table 1. In Table 2 below: cereblon binding IC50 values are categorized as follows: “A” represents IC50 value<1 μM, “B” represents IC50 value between 1 and 10 μM, and “C” represents IC50 value>10 μM.

Sequence of 6×His-CRBN-DDB1 protein (Q96SW2 whole entry): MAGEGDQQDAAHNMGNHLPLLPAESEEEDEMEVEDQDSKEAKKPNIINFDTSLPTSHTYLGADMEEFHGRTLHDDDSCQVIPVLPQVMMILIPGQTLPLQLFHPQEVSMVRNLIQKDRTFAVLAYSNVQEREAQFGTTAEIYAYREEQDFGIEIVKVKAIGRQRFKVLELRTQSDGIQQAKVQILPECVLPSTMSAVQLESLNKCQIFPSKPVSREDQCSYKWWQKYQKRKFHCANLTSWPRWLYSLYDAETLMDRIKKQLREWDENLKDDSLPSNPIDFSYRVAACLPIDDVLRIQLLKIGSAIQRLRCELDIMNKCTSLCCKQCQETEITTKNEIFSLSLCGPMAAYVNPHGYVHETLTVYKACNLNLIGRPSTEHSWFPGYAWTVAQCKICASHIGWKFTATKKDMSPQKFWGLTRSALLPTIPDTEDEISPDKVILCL
Sequence of 6×His-CRBN-DDB1 protein (Q16531 whole entry partner): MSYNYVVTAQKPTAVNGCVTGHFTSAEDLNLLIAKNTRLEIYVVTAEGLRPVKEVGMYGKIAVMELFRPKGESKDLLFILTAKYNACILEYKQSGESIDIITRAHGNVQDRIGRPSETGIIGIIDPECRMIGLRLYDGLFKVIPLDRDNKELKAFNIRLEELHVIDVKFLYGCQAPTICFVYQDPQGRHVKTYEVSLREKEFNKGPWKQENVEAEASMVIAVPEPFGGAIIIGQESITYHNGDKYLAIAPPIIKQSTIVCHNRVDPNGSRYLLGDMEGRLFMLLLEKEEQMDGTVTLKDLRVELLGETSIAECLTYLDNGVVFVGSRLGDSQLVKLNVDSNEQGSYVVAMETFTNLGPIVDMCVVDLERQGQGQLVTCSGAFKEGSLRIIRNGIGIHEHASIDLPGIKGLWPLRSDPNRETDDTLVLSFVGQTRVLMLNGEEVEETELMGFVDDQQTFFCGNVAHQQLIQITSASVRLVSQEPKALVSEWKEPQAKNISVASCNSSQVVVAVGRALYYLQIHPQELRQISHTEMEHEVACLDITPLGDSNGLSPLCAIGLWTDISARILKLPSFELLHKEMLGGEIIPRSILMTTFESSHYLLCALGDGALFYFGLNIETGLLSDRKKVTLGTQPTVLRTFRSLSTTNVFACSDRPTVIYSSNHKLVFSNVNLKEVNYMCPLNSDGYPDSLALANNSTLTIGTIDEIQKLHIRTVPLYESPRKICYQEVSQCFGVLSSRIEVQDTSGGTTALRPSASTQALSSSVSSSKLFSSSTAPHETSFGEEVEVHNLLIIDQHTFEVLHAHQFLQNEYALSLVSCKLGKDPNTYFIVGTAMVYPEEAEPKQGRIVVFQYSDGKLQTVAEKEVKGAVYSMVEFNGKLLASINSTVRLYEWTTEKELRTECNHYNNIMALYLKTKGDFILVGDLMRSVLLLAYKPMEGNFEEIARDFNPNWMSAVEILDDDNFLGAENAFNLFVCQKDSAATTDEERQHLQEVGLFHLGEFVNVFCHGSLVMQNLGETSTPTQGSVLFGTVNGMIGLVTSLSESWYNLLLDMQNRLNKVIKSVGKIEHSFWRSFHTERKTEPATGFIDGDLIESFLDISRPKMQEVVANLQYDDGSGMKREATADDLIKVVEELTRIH

Row | SMILES | IC50 [nM]
1 | Cc1ccc(C(=O)Nc2ccc3c(c2)C(=O)N(C2CCC(=O)NC2=O)C3=O)cc1 (stereo not drawn) [Compound 1, N-(2-(2,6-dioxopiperidin-3-yl)-1,3-dioxolsoindolin-5-yl)-4-methylbenzamide] | 1000 to 10000
2 | O=C1CCC(N2Cc3cc(NC(=O)c4cccnc4)ccc3C2=O)C(=O)N1 (stereo not drawn) [Compound 6, N-(2-(2,6-dioxopiperidin-3-yl)-1-oxoisoindolin-5-yl)nicotinamide] | 1000 to 10000
3 | COc1cccc(C(=O)Nc2ccc3c(c2)CN(C2CCC(=O)NC2=O)C3=O)c1 (stereo not drawn) [Compound 11, N-(2-(2,6-dioxopiperidin-3-yl)-1-oxoisoindolin-5-yl)-3-methoxybenzamide] | < 1000
4 | O=C1CCC(N2Cc3cc(NC(=O)c4cccc(C(F)(F)F)c4)ccc3C2=O)C(=O)N1 (stereo not drawn) [Compound 12, N-(2-(2,6-dioxopiperidin-3-yl)-1-oxoisoindolin-5-yl)-3-(trifluoromethyl)benzamide] | < 1000
5 | O=C1CCC(N2Cc3cc(NC(=O)c4ccc(C(F)(F)F)cc4)ccc3C2=O)C(=O)N1 (stereo not drawn) [Compound 15, N-(2-(2,6-dioxopiperidin-3-yl)-1-oxoisoindolin-5-yl)-4-(trifluoromethyl)benzamide] | < 1000
6 | O=C1CCC(N2Cc3cc(C(=O)Nc4ccc(F)cc4)ccc3C2=O)C(=O)N1 (stereo not drawn) [Compound 16, 2-(2,6-dioxopiperidin-3-yl)-N-(4-fluorophenyl)-1-oxoisoindoline-5-carboxamide] | 1000 to 10000
7 | Cc1ccc(NC(=O)Nc2ccc3c(c2)CN(C2CCC(=O)NC2=O)C3=O)cc1 (stereo not drawn) [Compound 17, 1-(2-(2,6-dioxopiperidin-3-yl)-1-oxoisoindolin-5-yl)-3-(p-tolyl)urea] | 1000 to 10000
8 | CN(C(=O)c1ccccc1)c1ccc2c(c1)CN(C1CCC(=O)NC1=O)C2=O (stereo not drawn) [Compound 18, N-(2-(2,6-dioxopiperidin-3-yl)-1-oxoisoindolin-5-yl)-N-methylbenzamide] | 1000 to 10000
9 | Cc1ccc2c(Nc3ccc4c(c3)CN(C3CCC(=O)NC3=O)C4=O)noc2c1 (stereo not drawn) [Compound 19, 3-(5-((6-methylbenzo[d]isoxazol-3-yl)amino)-1-oxoisoindolin-2-yl)piperidine-2,6-dione] | < 1000
10 | Cc1ccc(C(=O)Nc2ccc3c(c2)CN(C2CCC(=O)NC2=O)C3=O)cn1 (stereo not drawn) [Compound 20, N-(2-(2,6-dioxopiperidin-3-yl)-1-oxoisoindolin-5-yl)-6-methylnicotinamide] | 1000 to 10000
11 | O=C1CCC(N2Cc3cc(NC(=O)c4ccc(-c5ccn[nH]5)cc4)ccc3C2=O)C(=O)N1 (stereo not drawn) [Compound 21, N-(2-(2,6-dioxopiperidin-3-yl)-1-oxoisoindolin-5-yl)-4-(1H-pyrazol-5-yl)benzamide] | 1000 to 10000
12 | CC(C)(O)c1ccc(C(=O)Nc2ccc3c(c2)CN(C2CCC(=O)NC2=O)C3=O)cc1 (stereo not drawn) [Compound 22, N-(2-(2,6-dioxopiperidin-3-yl)-1-oxoisoindolin-5-yl)-4-(2-hydroxypropan-2-yl)benzamide] | 1000 to 10000
13 | O=C1CCC(N2Cc3cc(NC(=O)c4ccccc4Oc4ccccc4)ccc3C2=O)C(=O)N1 (stereo not drawn) [Compound 23, N-(2-(2,6-dioxopiperidin-3-yl)-1-oxoisoindolin-5-yl)-2-phenoxybenzamide] | < 1000
14 | O=C1CCC(N2Cc3cc(NC(=O)Cc4ccc(O)cc4)ccc3C2=O)C(=O)N1 (stereo not drawn) [Compound 24, N-(2-(2,6-dioxopiperidin-3-yl)-1-oxoisoindolin-5-yl)-2-(4-hydroxyphenyl)acetamide] | < 1000
15 | CC(N)c1ccc(C(=O)Nc2ccc3c(c2)CN(C2CCC(=O)NC2=O)C3=O)cc1 (stereo not drawn) [Compound 29, 4-(1-aminoethyl)-N-(2-(2,6-dioxopiperidin-3-yl)-1-oxoisoindolin-5-yl)benzamide] | 1000 to 10000
16 | NC1(c2ccc(C(=O)Nc3ccc4c(c3)CN(C3CCC(=O)NC3=O)C4=O)cc2)CCC1 (stereo not drawn) [Compound 30, 4-(1-aminocyclobutyl)-N-(2-(2,6-dioxopiperidin-3-yl)-1-oxoisoindolin-5-yl)benzamide] | 1000 to 10000
17 | CN1CCN(Cc2ccc(C(=O)Nc3ccc4c(c3)CN(C3CCC(=O)NC3=O)C4=O)cc2)CC1 (stereo not drawn) [Compound 31] | 1000 to 10000
18 | O=C1CCC(N2Cc3cc(NC(=O)c4ccc(CN5CCOCC5)cc4)ccc3C2=O)C(=O)N1 (stereo not drawn) [Compound 32, N-(2-(2,6-dioxopiperidin-3-yl)-1-oxoisoindolin-5-yl)-4-(morpholinomethyl)benzamide] | 1000 to 10000
19 | O=C1CCC(N2Cc3cc(Nc4noc5ccccc45)ccc3C2=O)C(=O)N1 (stereo not drawn) [Compound 38, 3-(5-(benzo[d]isoxazol-3-ylamino)-1-oxoisoindolin-2-yl)piperidine-2,6-dione] | < 1000
20 | COc1ccc(C(=O)Nc2ccc3c(c2)CN(C2CCC(=O)NC2=O)C3=O)cc1 (stereo not drawn) [Compound 40, N-(2-(2,6-dioxopiperidin-3-yl)-1-oxoisoindolin-5-yl)-4-methoxybenzamide] | < 1000
21 | CC(C)c1cccc(C(=O)Nc2ccc3c(c2)CN(C2CCC(=O)NC2=O)C3=O)c1 (stereo not drawn) [Compound 41, N-(2-(2,6-dioxopiperidin-3-yl)-1-oxoisoindolin-5-yl)-3-isopropylbenzamide] | 1000 to 10000

The next lines start with the values.

Row | IC50 [nM] | SMILES
22 | < 1000 | Cc1ccc(C(=O)Nc2ccc3c(c2)CN(C2CCC(=O)NC2=O)C3=O)cc1 (stereo not drawn) [Compound 2, N-(2-(2,6-dioxopiperidin-3-yl)-1-oxoisoindolin-5-yl)-4-methylbenzamide]
23 | 1000 to 10000 | Cc1cccc(C(=O)Nc2ccc3c(c2)CN(C2CCC(=O)NC2=O)C3=O)c1 (stereo not drawn) [Compound 3, N-(2-(2,6-dioxopiperidin-3-yl)-1-oxoisoindolin-5-yl)-3-methylbenzamide]
24 | < 1000 | O=C1CCC(N2Cc3cc(NC(=O)c4ccccc4)ccc3C2=O)C(=O)N1 (stereo not drawn) [Compound 4, N-(2-(2,6-dioxopiperidin-3-yl)-1-oxoisoindolin-5-yl)benzamide]
25 | 1000 to 10000 | O=C1CCC(N2Cc3cc(NC(=O)c4ccc(F)cc4)ccc3C2=O)C(=O)N1 (stereo not drawn) [Compound 5, N-(2-(2,6-dioxopiperidin-3-yl)-1-oxoisoindolin-5-yl)-4-fluorobenzamide]
26 | 1000 to 10000 | O=C1CCC(N2Cc3cc(NC(=O)c4ccncc4)ccc3C2=O)C(=O)N1 (stereo not drawn) [Compound 7, N-(2-(2,6-dioxopiperidin-3-yl)-1-oxoisoindolin-5-yl)isonicotinamide]
27 | 1000 to 10000 | O=C1CCC(N2Cc3cc(NC(=O)c4cccc(F)c4)ccc3C2=O)C(=O)N1 (stereo not drawn) [Compound 8, N-(2-(2,6-dioxopiperidin-3-yl)-1-oxoisoindolin-5-yl)-3-fluorobenzamide]
28 | < 1000 | N#Cc1cccc(C(=O)Nc2ccc3c(c2)CN(C2CCC(=O)NC2=O)C3=O)c1 (stereo not drawn) [Compound 9, 3-cyano-N-(2-(2,6-dioxopiperidin-3-yl)-1-oxoisoindolin-5-yl)benzamide]
29 | < 1000 | O=C1CCC(N2Cc3cc(NC(=O)c4ccccc4C(F)(F)F)ccc3C2=O)C(=O)N1 (stereo not drawn) [Compound 10, N-(2-(2,6-dioxopiperidin-3-yl)-1-oxoisoindolin-5-yl)-2-(trifluoromethyl)benzamide]
30 | < 1000 | O=C1CCC(N2Cc3cc(NC(=O)c4ccc(Cl)cc4)ccc3C2=O)C(=O)N1 (stereo not drawn) [Compound 13, 4-chloro-N-(2-(2,6-dioxopiperidin-3-yl)-1-oxoisoindolin-5-yl)benzamide]
31 | 1000 to 10000 | O=C1CCC(N2Cc3cc(NC(=O)c4ccc(Cl)cc4)ccc3C2=O)C(=O)N1 (stereo not drawn) [Compound 14, 4-chloro-N-(2-(2,6-dioxopiperidin-3-yl)-1-oxoisoindolin-5-yl)benzamide]
32 | < 1000 | O=C1CCC(N2Cc3cc(NC(=O)Cc4ccccc4Br)ccc3C2=O)C(=O)N1 (stereo not drawn) [Compound 25, 2-(2-bromophenyl)-N-(2-(2,6-dioxopiperidin-3-yl)-1-oxoisoindolin-5-yl)acetamide]
33 | > 10000 | O=C1CCC(N2Cc3cc(NC(=O)c4[nH]c5ccccc5c4Cl)ccc3C2=O)C(=O)N1 (stereo not drawn) [Compound 26, 3-chloro-N-(2-(2,6-dioxopiperidin-3-yl)-1-oxoisoindolin-5-yl)-1H-indole-2-carboxamide]
34 | < 1000 | O=C1CCC(N2Cc3cc(NC(=O)c4ccc5nc[nH]c5c4)ccc3C2=O)C(=O)N1 (stereo not drawn) [Compound 27, N-(2-(2,6-dioxopiperidin-3-yl)-1-oxoisoindolin-5-yl)-1H-benzo[d]imidazole-6-carboxamide]
35 | 1000 to 10000 | Cc1ccccc1C(=O)Nc1ccc2c(c1)CN(C1CCC(=O)NC1=O)C2=O (stereo not drawn) [Compound 33, N-(2-(2,6-dioxopiperidin-3-yl)-1-oxoisoindolin-5-yl)-2-methylbenzamide]
36 | 1000 to 10000 | COc1ccccc1C(=O)Nc1ccc2c(c1)CN(C1CCC(=O)NC1=O)C2=O (stereo not drawn) [Compound 34, N-(2-(2,6-dioxopiperidin-3-yl)-1-oxoisoindolin-5-yl)-2-methoxybenzamide]
37 | 1000 to 10000 | Cc1cccc(C(=O)Nc2ccc3c(c2)CN(C2CCC(=O)NC2=O)C3=O)n1 (stereo not drawn) [Compound 35, N-(2-(2,6-dioxopiperidin-3-yl)-1-oxoisoindolin-5-yl)-6-methylpicolinamide]
38 | < 1000 | Cc1ccc(C(=O)Nc2ccc3c(c2)CN(C2CCC(=O)NC2=O)C3=O)nc1 (stereo not drawn) [Compound 36, N-(2-(2,6-dioxopiperidin-3-yl)-1-oxoisoindolin-5-yl)-5-methylpicolinamide]
39 | 1000 to 10000 | O=C1CCC(N2Cc3cc(NC(=O)c4ccccc4F)ccc3C2=O)C(=O)N1 (stereo not drawn) [Compound 37, N-(2-(2,6-dioxopiperidin-3-yl)-1-oxoisoindolin-5-yl)-2-fluorobenzamide]

Reference: patent US20260014133A1, “SUBSTITUTED 3-(l-OXOISOINDOLIN-2-YL)PIPERIDINE-2,6-DIONE/2-(2,6-DIOXOPIPERIDIN-3-YL)ISOINDOLINE-l,3-DIONE ANALOGS AS MODULATORS OF CEREBLON PROTEIN” (St. Jude's Chidren's Research Hospital, Inc., priority 2022, published 2026)
